In patent publication US20240116985A1, “STAPLED PEPTIDES AND METHODS THEREOF” (priority 2020, published 2024):
Read-outs that look alike come from different tables or passages of the source.

Experiments:
[1] = target: T1, beta-catenin/TCF4 engagement (Homo sapiens, UniProt P35222); experiment: Nano-BRET target engagement assay (B-cat-Halo & TCF4-Luc in HEK293 cells); assay type: cell-based; conditions: read-out: NanoBRET Abs IC50
T1 construct: expressed in transfected cells; host or cells: HEK293
T1 sequence (P35222 1-781): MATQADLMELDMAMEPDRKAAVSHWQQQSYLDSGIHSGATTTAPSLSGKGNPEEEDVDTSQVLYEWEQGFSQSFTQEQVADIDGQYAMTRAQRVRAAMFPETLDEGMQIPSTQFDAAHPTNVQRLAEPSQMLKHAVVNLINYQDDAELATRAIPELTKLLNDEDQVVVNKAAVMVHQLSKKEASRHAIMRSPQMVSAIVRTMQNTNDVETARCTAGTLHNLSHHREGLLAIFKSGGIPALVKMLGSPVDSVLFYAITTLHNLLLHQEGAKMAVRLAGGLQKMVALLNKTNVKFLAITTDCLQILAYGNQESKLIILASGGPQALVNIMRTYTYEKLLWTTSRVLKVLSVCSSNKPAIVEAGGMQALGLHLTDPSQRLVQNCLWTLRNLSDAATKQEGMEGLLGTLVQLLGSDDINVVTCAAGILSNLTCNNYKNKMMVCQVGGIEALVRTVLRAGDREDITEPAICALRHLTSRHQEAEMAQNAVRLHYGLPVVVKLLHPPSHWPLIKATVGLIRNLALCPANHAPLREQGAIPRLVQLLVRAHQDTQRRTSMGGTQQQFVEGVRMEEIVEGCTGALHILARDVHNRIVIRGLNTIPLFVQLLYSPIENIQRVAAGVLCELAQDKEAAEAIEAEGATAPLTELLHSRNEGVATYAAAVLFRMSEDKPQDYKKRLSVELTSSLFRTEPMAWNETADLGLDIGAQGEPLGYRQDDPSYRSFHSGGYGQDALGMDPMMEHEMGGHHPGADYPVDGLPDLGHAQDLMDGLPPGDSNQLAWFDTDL

[2] = target: T2, full-length beta-Catenin (Uniprot ID P35222) (Homo sapiens, UniProt P35222); experiment: Fluorescence polarization IC50 (beta-catenin / 5FAM-TCF4 10-53 competition); assay type: binding; conditions: fluorescence polarization; read-out: beta-Catenin FP IC50
T2 construct: 10 nM full-length beta-Catenin (Uniprot ID P35222)
T2 sequence (P35222 1-781): T1 sequence (P35222 1-781)

CC(=O)N1CCC[C@]12CC=CCCCC1(CCCC=CCCCOC(=O)N3CCC(C(=O)N[C@@H](Cc4ccccc4C(F)(F)F)C(=O)N[C@@H](Cc4csc5ccccc45)C(=O)N[C@@H](CCC(N)=O)C(N)=O)(CC3)NC(=O)[C@H](CC(C)C)NC(=O)[C@H](Cc3ccccc3)NC(=O)[C@H](C)NC(=O)[C@H](C)NC(=O)[C@H](Cc3cccc(C(=O)O)c3)NC(=O)[C@H](CC(=O)O)NC1=O)NC(=O)[C@H](CC(C)(C)C)NC(=O)[C@H](CC(=O)O)NC2=O (stereo partly drawn) [I-2581, Ac-PL3-Asp-Npg-B5-Asp-3COOHF-Ala-Ala-Phe-Leu-SPip2-2F3MeF-BztA-Gln-NH2]
IC50 [1]: > 20 µM
IC50 [2]: 205 nM

CC(=O)N1CCC[C@]12CC=CCCCC1(CCCC=CCCCOC(=O)N3CC[C@@](C(=O)N[C@@H](Cc4ccsc4)C(=O)N[C@@H](Cc4csc5ccccc45)C(=O)N[C@@H](C)C(N)=O)(C3)NC(=O)[C@H](CC(C)C)NC(=O)[C@H](Cc3ccccc3)NC(=O)[C@H](C)NC(=O)[C@H](CCC(N)=O)NC(=O)[C@H](Cc3cc(C(=O)O)cc(C(F)(F)F)c3)NC(=O)[C@H](CC(=O)O)NC1=O)NC(=O)[C@H](CC(C)(C)C)NC(=O)[C@H](CC(=O)O)NC2=O (stereo partly drawn) [I-2211, Ac-PL3-Asp-Npg-B5-Asp-5F3Me3COOHF-Gln-Ala-Phe-Leu-PyrS2-3Thi-BztA-Ala-NH2]
IC50 ([1]; absolute IC50): 12.9 µM
IC50 [2]: 23 nM

CC(=O)N1CCC[C@]12CC=CCCCC1(CCCC=CCCCOC(=O)N3CC[C@@](C(=O)N[C@@H](Cc4ccsc4)C(=O)N[C@@H](Cc4csc5ccccc45)C(=O)N[C@@H](CCC(N)=O)C(N)=O)(C3)NC(=O)[C@H](CC(C)C)NC(=O)[C@H](Cc3ccccc3)NC(=O)[C@H](C)NC(=O)[C@H](CC(=O)N3CCN(C)CC3)NC(=O)[C@H](CC(=O)O)NC(=O)[C@H](CC(=O)O)NC1=O)NC(=O)[C@H](CC(C)(C)C)NC(=O)[C@H](CC(=O)O)NC2=O (stereo partly drawn) [I-1484, Ac-PL3-Asp-Npg-B5-Asp-Asp-MePpzAsn-Ala-Phe-Leu-PyrS2-3Thi-BztA-Gln-NH2]
IC50 ([1]; absolute IC50): > 20 µM
IC50 [2]: 30 nM

CC(=O)N1CCC[C@]12CC=CCCCC1(CCCC=CCCCOC(=O)N3CC[C@@](C(=O)N[C@@H](Cc4ccccc4Cl)C(=O)N[C@@H](Cc4csc5ccccc45)C(=O)N[C@@H](CCC(N)=O)C(N)=O)(C3)NC(=O)[C@H]([C@@H](C)O)NC(=O)[C@H](Cc3ccccc3)NC(=O)CNC(=O)C(C)(C)NC(=O)[C@H](CN(CC(=O)O)CC(F)(F)F)NC(=O)[C@H](CC(=O)O)NC1=O)NC(=O)[C@H](CC(C)(C)C)NC(=O)[C@H](CC(=O)O)NC2=O (stereo partly drawn) [I-1696, Ac-PL3-Asp-Npg-B5-Asp-TfeGA-Aib-Gly-Phe-Thr-PyrS2-2C1F-BztA-Gln-NH2]
IC50 ([1]; absolute IC50): 35.5 µM
IC50 [2]: 32 nM

CC(=O)N1CCC[C@]12CC=CCCCC1(CCCC=CCCCOC(=O)N3CC[C@@](C(=O)N[C@@H](Cc4ccsc4)C(=O)N[C@@H](Cc4csc5ccccc45)C(=O)N[C@@H](CCC(N)=O)C(N)=O)(C3)NC(=O)[C@H](CC(N)=O)NC(=O)[C@H](Cc3ccccc3)NC(=O)[C@H](C)NC(=O)[C@H](C)NC(=O)[C@H](CC(N)=O)NC(=O)[C@H](CC(N)=O)NC1=O)NC(=O)[C@H](C)NC(=O)[C@H](CC(=O)O)NC2=O (stereo partly drawn) [I-1556, Ac-PL3-Asp-Ala-B5-Asn-Asn-Ala-Ala-Phe-Asn-PyrS2-3Thi-BztA-Gln-NH2]
IC50 ([1]; absolute IC50): > 20 µM
IC50 [2]: 385 nM

CC(=O)N(CC[C@@H]1NC(=O)[C@H](CC(=O)O)NC(=O)C2(CCCC=CCCCOC(=O)N3CC[C@@](C(=O)N[C@@H](Cc4ccsc4)C(=O)N[C@@H](Cc4csc5ccccc45)C(=O)N[C@@H](CCC(N)=O)C(N)=O)(C3)NC(=O)[C@H](CC(C)C)NC(=O)[C@H](Cc3ccccc3)NC(=O)[C@H](C)NC(=O)[C@H](C)NC1=O)CCCC=CC[C@]1(CCCN1C(C)=O)C(=O)N[C@@H](CC(=O)O)C(=O)N[C@@H](CC(C)(C)C)C(=O)N2)CC(=O)O (stereo partly drawn) [I-1840, Ac-PL3-Asp-Npg-B5-Asp-[Ac]GAbu-Ala-Ala-Phe-Leu-PyrS2-3Thi-BztA-Gln-NH2]
IC50 ([1]; absolute IC50): 22.3 µM
IC50 [2]: 14 nM

CCN(CC(=O)O)C[C@@H]1NC(=O)[C@H](CC(=O)O)NC(=O)C2(CCCC=CCCCCCC[C@@](C)(C(=O)N[C@@H](Cc3ccsc3)C(=O)N[C@@H](Cc3csc4ccccc34)C(=O)N[C@@H](CCC(N)=O)C(N)=O)NC(=O)[C@H](CC(N)=O)NC(=O)[C@H](Cc3ccccc3)NC(=O)[C@H](C)NC(=O)[C@H](C)NC1=O)CCCC=CC[C@]1(CCCN1C(C)=O)C(=O)N[C@@H](CC(=O)O)C(=O)N[C@@H](CC(C)(C)C)C(=O)N2 (stereo partly drawn) [I-1627, Ac-PL3-Asp-Npg-B5-Asp-[Et]GA-Ala-Ala-Phe-Asn-S8-3Thi-BztA-Gln-NH2]
IC50 ([1]; absolute IC50): > 20 µM
IC50 [2]: 57 nM

CC(=O)N[C@]1(C)CCCC=CCCCC2(CCCC=CCCCOC(=O)N3CC[C@@](C(=O)N[C@@H](Cc4ccccc4C(F)(F)F)C(=O)N[C@@H](Cc4csc5ccccc45)C(=O)N[C@@H](CCC(N)=O)C(N)=O)(C3)NC(=O)[C@H](CC(C)C)NC(=O)[C@H](Cc3ccccc3)NC(=O)[C@H](C)NC(=O)[C@H](C)NC(=O)[C@H](Cc3cccc(C(=O)O)c3)NC(=O)[C@H](CC(=O)O)NC2=O)NC(=O)[C@H](CC(C)(C)C)NC(=O)[C@H](CC(=O)O)NC1=O (stereo partly drawn) [I-2565, Ac-R5-Asp-Npg-B5-Asp-3COOHF-Ala-Ala-Phe-Leu-PyrS2-2F3MeF-BztA-Gln-NH2]
IC50 [1]: 21 µM
IC50 [2]: 90 nM

CC(=O)N1CCC[C@]12CCCCCCC1(CCCCCCCCOC(=O)N3CC[C@@](C(=O)N[C@@H](Cc4ccsc4)C(=O)N[C@@H](Cc4csc5ccccc45)C(=O)N[C@@H](CCC(N)=O)C(N)=O)(C3)NC(=O)[C@H](CC(C)C)NC(=O)[C@H](Cc3ccccc3)NC(=O)[C@H](C)NC(=O)[C@H](C)NC(=O)[C@H](CC(=O)O)NC(=O)[C@H](CC(=O)O)NC1=O)NC(=O)[C@H](CC(C)(C)C)NC(=O)[C@H](CC(=O)O)NC2=O (stereo partly drawn) [I-1808, Ac-PL3-Asp-Npg-B5-Asp-Asp-Ala-Ala-Phe-Leu-PyrS2-3Thi-BztA-Gln-NH2]
IC50 ([1]; absolute IC50): 14 µM
IC50 [2]: 90 nM

C[C@@H]1NC(=O)[C@H](C)NC(=O)[C@H](CC(=O)O)NC(=O)[C@H](CC(=O)O)NC(=O)C2(CCCC=CCCCOC(=O)N3CC[C@@](C(=O)N[C@@H](Cc4ccsc4)C(=O)N[C@@H](Cc4csc5ccccc45)C(=O)N[C@@H](CCC(N)=O)C(N)=O)(C3)NC(=O)[C@H](CC(N)=O)NC(=O)[C@H](Cc3ccccc3)NC1=O)CCCC=CC[C@]1(CCCN1S(C)(=O)=O)C(=O)N[C@@H](CC(=O)O)C(=O)N[C@@H](CC(C)(C)C)C(=O)N2 (stereo partly drawn) [I-1218, MeSO2-PL3-Asp-Npg-B5-Asp-Asp-Ala-Ala-Phe-Asn-PyrS2-3Thi-BztA-Gln-NH2]
IC50 ([1]; absolute IC50): > 20 µM
IC50 [2]: 10 nM

CC(=O)N1CCC[C@]12CC=CCCCC1(CCCC=CCCCOC(=O)N3CC[C@@](C(=O)N[C@@H](Cc4ccsc4)C(=O)N[C@@H](Cc4csc5ccccc45)C(=O)N[C@@H](CCC(N)=O)C(N)=O)(C3)NC(=O)[C@H](CC(C)C)NC(=O)[C@H](Cc3ccccc3)NC(=O)[C@H](C)NC(=O)[C@H](C)NC(=O)[C@H](CCNCC(=O)O)NC(=O)[C@H](CC(=O)O)NC1=O)NC(=O)[C@H](CC(C)(C)C)NC(=O)[C@H](CC(=O)O)NC2=O (stereo partly drawn) [I-1841, Ac-PL3-Asp-Npg-B5-Asp-GAbu-Ala-Ala-Phe-Leu-PyrS2-3Thi-BztA-Gln-NH2]
IC50 ([1]; absolute IC50): > 20 µM
IC50 [2]: 76 nM

C[C@@H]1NC(=O)[C@H](C)NC(=O)[C@H](CC(=O)O)NC(=O)[C@H](CC(=O)O)NC(=O)C2(CCCC=CCCCOC(=O)N3CC[C@@](C(=O)N[C@@H](Cc4ccccc4Cl)C(=O)N[C@@H](Cc4csc5ccccc45)C(=O)N[C@@H](C(N)=O)[C@H](C)O)(C3)NC(=O)[C@H](CC(N)=O)NC(=O)[C@H](Cc3ccccc3)NC1=O)CCCC=CC[C@]1(CCCN1S(C)(=O)=O)C(=O)N[C@@H](CC(=O)O)C(=O)N[C@@H](CC(C)(C)C)C(=O)N2 (stereo partly drawn) [I-1258, MeSO2-PL3-Asp-Npg-B5-Asp-Asp-Ala-Ala-Phe-Asn-PyrS2-2C1F-BztA-dThr-NH2]
IC50 ([1]; absolute IC50): > 20 µM
IC50 [2]: 17 nM

CC(=O)N1CCC[C@]12CC=CCCCC1(CCCC=CCCCOC(=O)N3CC[C@@](C(=O)N[C@@H](Cc4ccsc4)C(=O)N[C@@H](Cc4csc5ccccc45)C(=O)N[C@@H](C)C(N)=O)(C3)NC(=O)[C@H](C(C)C)NC(=O)[C@H](Cc3ccccc3)NC(=O)[C@H](C)NC(=O)[C@H](CCC(=O)N(C)C)NC(=O)[C@H](Cc3cccc(C(=O)O)c3)NC(=O)[C@H](CC(=O)O)NC1=O)NC(=O)[C@H](CC(C)(C)C)NC(=O)[C@H](CC(=O)O)NC2=O (stereo partly drawn) [I-2303, Ac-PL3-Asp-Npg-B5-Asp-3COOHF-[NMe2]GlnR-Ala-Phe-Val-PyrS2-3Thi-BztA-Ala-NH2]
IC50 ([1]; absolute IC50): 1.2 µM
IC50 [2]: 5 nM
